Data reported in patent US20190076496A1, “POLYSACCHARIDE DIGESTION INHIBITOR” (Q' SAI CO., LTD., priority 2016, published 2019).

How the values were obtained:
Assay type in all cases: in vivo
[1] = system: GK rat (Goto-Kakizaki rat); test: Measurement of blood glucose level after loading glucose (dextrose)
Protocol: Specifically, each GK rat was allowed to orally ingest the Astilbe thunbergii extract and dextrose and its influence on a change in the blood glucose level was analyzed (Approach 5). In this analysis, an experiment group orally ingesting anagliptin, a DPP-IV inhibitor, was used as a positive control.
[Approach 5: Measurement of Blood Glucose Level after Loading Glucose]
(1) Japanese Pharmacopeia water for injection (a negative control)
(2) A solution having anagliptin dissolved in the water for injection (a positive control); administered at 10 mg/kg body weight
(3) A suspension having, the hydrous ethanol extract of Astilbe thunbergii prepared in the Test Example 2, suspended in the water for injection; administered at 100 mg/kg body weight or 300 mg/kg body weight
Administration and Measurement of Blood Glucose Level
Each GK rat (8-week-old male rat, 7 rats/experimental group) was fasted for 18 hours and its fasting blood glucose level was then measured. Thereafter, the test substance was orally administered to the rat using a disposable gastric probe and a disposable syringe. […] Blood was collected from the tail vein 30, 60, 90 and 120 minutes after the administration of dextrose, and the blood glucose level was measured using a simple type blood glucose meter (NIPRO Freestyle Freedom Lite, FS Blood Glucose Sensor Light, manufactured by Nipro Corporation).

[2] = system: GK rat (Goto-Kakizaki rat); test: Measurement of blood glucose level after loading starch; details: 60 minutes after starch 2 g/kg; acarbose 10 mg/kg body weight oral
Protocol: Each GK rat (Goto-Kakizaki rat) was allowed to orally ingest an Astilbe thunbergii extract and immediately thereafter to orally ingest starch, and the blood glucose level up to 2 hours later was measured over time (Approach 4). In the case of a GK rat, since hyperglycemia is caused due to its low insulin secretion amount after meal, it is possible to sensitively analyze the influence of drugs on the digestion and absorption of saccharides.
[Approach 4: Measurement of Blood Glucose Level after Loading Starch]
GK rats (male, 5 weeks old) were obtained from Japan SLC, Inc. and preliminarily bred for 1 week before use. Seven rats per experimental group were used.
(1) Japanese Pharmacopeia water for injection (a negative control))
(2) A solution having acarbose dissolved in the water for injection (a positive control); administered at 10 mg/kg body weight
(3) A suspension having the hydrous ethanol extract of Astilbe thunbergii suspended in the water for injection; administered at 100 mg/kg body weight or 300 mg/kg body weight […]
Each GK rat was fasted for 18 hours and its fasting blood glucose level was then measured. […] Blood was collected from the tail vein 30, 60, 90 and 120 minutes after the administration of starch, and the blood glucose level was measured using a simple type blood glucose meter (NIPRO Freestyle Freedom Lite, FS Blood Glucose Sensor Light, manufactured by Nipro Corporation).

[3] = system: GK rat (Goto-Kakizaki rat); test: Measurement of blood glucose level after loading sucrose; details: 90 minutes after sucrose 2 g/kg; acarbose 10 mg/kg oral
Protocol: Each GK rat was fasted for 18 hours and its fasting blood glucose level was then measured. Thereafter, the test substance was orally administered to the rat using a disposable gastric probe and a disposable syringe. Two minutes after the administration of the test substance, starch (dissolved in purified water, at 2 g/kg body weight) was administered in a single oral dose. Blood was collected from the tail vein 30, 60, 90 and 120 minutes after the administration of starch, and the blood glucose level was measured using a simple type blood glucose meter (NIPRO Freestyle Freedom Lite, FS Blood Glucose Sensor Light, manufactured by Nipro Corporation).
As described above, since the digestion process from starch to dextrose depends on the enzyme activities of both α-amylase and α-glucosidase, it cannot be ruled out from the results of Test Example 3 that the Astilbe thunbergii extract might inhibit only one of the enzyme activities in the body of an animal (the activity of the other enzyme activity cannot be inhibited). Accordingly, the digestion inhibitory effect of Astilbe thunbergii extract was analyzed using sucrose for which the digestion process depends only on α-glucosidase. Specifically, in the Approach 4, the blood glucose was measured using “sucrose (dissolved in purified water, at 2 g/kg body weight)” instead of “starch (dissolved in purified water, at 2 g/kg body weight)”. […]

SMILES	glucose AUC compared with negative control ([1]; 0 to 120 minutes after dextrose, anagliptin 10 mg/kg, extract 100 or 300 mg/kg)	time course of blood glucose level compared with negative control ([1]; after dextrose 2 g/kg, anagliptin 10 mg/kg oral, decrease since 60 minutes later)	blood glucose level [2]	blood glucose level [3]
Cc1cc2ncc(C(=O)NCC(C)(C)NCC(=O)N3CCC[C@H]3C#N)cn2n1 [anagliptin]	significantly decreases the glucose AUC	began to decrease earlier than that in the negative control		
C[C@H]1O[C@H](O[C@H]2[C@H](O)[C@@H](O)[C@@H](O[C@H]3[C@H](O)[C@@H](O)C(O)O[C@@H]3CO)O[C@@H]2CO)[C@H](O)[C@@H](O)[C@@H]1N[C@H]1C=C(CO)[C@@H](O)[C@H](O)[C@H]1O (stereo partly shown) [acarbose]			117 ± 43 mg/dL	161 ± 45 mg/dL
